The results in this text go back to US20220356186A1, “PERK INHIBITING PYRROLOPYRIMIDINE COMPOUNDS” (HiberCell, Inc., priority 2019, published 2022).

The subject of experiment [1] is GFP-eIF2α in HEK293 cells. As to the kind of experiment: PERK cellular assay, TR-FRET in HEK293-EGFP-eIF2a cells after tunicamycin-induced ER stress. Format: cell-based. Conditions: HEK293-EGFP-eIF2a cells, tunicamycin 2 hours, read-out: Cellular eIF2α IC50. As to the method: Stable cell lines were created in HEK293 cells using lentiviral particles harboring an expression vector for GFP-eIF2α. Cells were selected using puromycin and enriched using fluorescence activated cell sorting against GFP. HEK293-EGFP-eIF2a cells were plated at 5000 cells/well in 384-well assay plates and incubated overnight at 37° C., 5% CO2. Inhibitor compounds were added to the wells by Echo acoustic dispensing and incubated for 30 minutes at 37° C., 5% CO2 prior to induction of ER stress by addition of tunicamycin to […] for 2 hours. Cells were lysed and TR-FRET was measured in an EnVision plate reader (PerkinElmer). FRET ratio data was normalized to signal from lysates treated with DMSO vehicle control and plotted as percent inhibition against 10-point; 3-fold dilution series of inhibitors. IC50 values were calculated using 4-parameter logistical fitting in XLFit.
(In general: TR-FRET usually uses a lanthanide donor and a delayed reading to cut background.)

The target of experiment [2] is T1, EIF2AK3 (PERK) catalytic domain (amino acids 536-1116) (Homo sapiens, UniProt Q9NZJ5).
T1 construct: EIF2AK3 (PERK) catalytic domain (amino acids 536-1116)
T1 sequence (Q9NZJ5 536-1116): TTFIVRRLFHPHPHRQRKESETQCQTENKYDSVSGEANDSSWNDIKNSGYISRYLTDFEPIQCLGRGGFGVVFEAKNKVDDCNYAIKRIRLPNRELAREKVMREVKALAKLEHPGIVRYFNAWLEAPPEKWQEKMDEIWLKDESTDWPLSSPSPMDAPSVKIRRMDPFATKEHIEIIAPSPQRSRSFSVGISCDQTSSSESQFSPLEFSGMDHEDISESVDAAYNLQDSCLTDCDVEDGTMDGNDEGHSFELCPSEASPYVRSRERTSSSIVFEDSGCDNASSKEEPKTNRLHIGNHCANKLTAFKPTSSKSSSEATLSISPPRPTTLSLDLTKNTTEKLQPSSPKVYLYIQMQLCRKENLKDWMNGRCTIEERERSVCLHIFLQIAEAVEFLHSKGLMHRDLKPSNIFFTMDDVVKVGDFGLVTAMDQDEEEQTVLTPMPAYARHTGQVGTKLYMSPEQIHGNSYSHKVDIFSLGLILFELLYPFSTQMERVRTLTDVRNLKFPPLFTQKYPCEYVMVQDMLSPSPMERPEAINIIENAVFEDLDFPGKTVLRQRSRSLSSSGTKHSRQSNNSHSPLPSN
Put plainly: PERK in vitro activity assay (isolated), TR-FRET kinase assay. Type of experiment: biochemical. Conditions: isolated PERK enzyme, 1.5 μM ATP; read-out: Biochemical IC50. From the text: PERK In Vitro Activity Assay (Isolated):
In vitro Inhibition of PERK Enzyme Activity (isolated) Recombinant human EIF2AK2 (PKR) catalytic domain (amino acids 252-551), EIF2AK3 (PERK) catalytic domain (amino acids 536-1116), GFP-eIF2a substrate, and Terbium-labelled phospho-eIF2a antibody is obtained (Invitrogen, Carlsbad, Calif.).
Express and purify HIS-SUMO-GCN2 catalytic domain (amino acids 584-1019) from E. coli. Perform TR-FRET kinase assays in the absence or presence of inhibitors in a reaction buffer consisting of 50 mM HEPES, pH 7.5, 10 mM MgCb, 1.0 mM EGTA, and 0.01% Brij-35, and 100-200 nM GFP-eIF2a substrate. […] Add test compound, initiate the reaction by addition of enzyme, and incubate at room temperature for 45 minutes. Stop the reaction by addition of EDTA to a final concentration of 10 mM, add Terbium-labelled phospho-eIF2a antibody at a final concentration of 2 nM, and incubate for 90 minutes. Monitor the resulting fluorescence in an EnVison® Multilabel reader (PerkinElmer, Waltham, Mass.). Determine TR-FRET ratios and the resulting IC50 values using a 4-parameter nonlinear logistic equation as shown: Y=(A+((B−A)/(1+((C/x)[…])))) where, Y=% specific inhibition, A=Bottom of the curve, B=Top of the curve, C=absolute IC50 (concentration causing 50% inhibition), and D=hill slope.

Read-outs that look alike come from different tables or passages of the source.

The IC50 is the concentration that inhibits the measured activity by half. Take `Cc1nc(N)c2c(-c3ccc(NC(=O)C(O)c4cc(F)cc(F)c4)c(F)c3F)cn(C)c2n1` (single isomer, unassigned) [Example 114, N-(4-(4-amino-2,7-dimethyl-7H-pyrrolo[2,3-d]pyrimidin-5-yl)-2,3-difluorophenyl)-2-(3,5-difluorophenyl)-2-hydroxyacetamide]: the IC50 lay in the range of 1000 to 2000 nM in experiment [1] and 251 to 500 nM in experiment [2].

On to `Cc1nc(N)c2c(-c3ccc(NC(=O)C(O)c4cc(F)cc(C(F)(F)F)c4)c(F)c3F)cn(C)c2n1` (single isomer, unassigned) [Example 115, N-(4-(4-amino-2,7-dimethyl-7H-pyrrolo[2,3-d]pyrimidin-5-yl)-2,3-difluorophenyl)-2-(3-fluoro-5-(trifluoromethyl)phenyl)-2-hydroxyacetamide], for which the IC50 in experiment [1] and in experiment [2] was 1 to 25 nM each time.

On to `Cc1nc(N)c2c(-c3ccc(NC(=O)C(O)c4cc(F)cc(C(F)(F)F)c4)c(F)c3F)cn(C)c2n1` (single isomer, unassigned) [Example 116, N-(4-(4-amino-2,7-dimethyl-7H-pyrrolo[2,3-d]pyrimidin-5-yl)-2,3-difluorophenyl)-2-(3-fluoro-5-(trifluoromethyl)phenyl)-2-hydroxyacetamide], for which the IC50 in experiment [1] and in experiment [2] was 251 to 500 nM in each case.

As for `Cc1nc(N)c2c(-c3cc(F)c(NC(=O)C(O)c4cccc(F)c4)cc3C)cn(C)c2n1` (single isomer, unassigned) [Example 121, N-(4-(4-amino-2,7-dimethyl-7H-pyrrolo[2,3-d]pyrimidin-5-yl)-2-fluoro-5-methylphenyl)-2-(3-fluorophenyl)-2-hydroxyacetamide], the figures for the IC50 in experiment [1] and in experiment [2] were 26 to 50 nM and 1 to 25 nM, respectively.

In the case of `Cc1nc(N)c2c(-c3cc(F)c(NC(=O)C(O)c4cccc(F)c4)cc3C)cn(C)c2n1` (single isomer, unassigned) [Example 122, N-(4-(4-amino-2,7-dimethyl-7H-pyrrolo[2,3-d]pyrimidin-5-yl)-2-fluoro-5-methylphenyl)-2-(3-fluorophenyl)-2-hydroxyacetamide], the IC50 in experiment [1] fell in the range of 1000 to 2000 nM; in experiment [2], 101 to 250 nM.

On to `Cc1cc(NC(=O)C(O)c2ccccc2)ccc1-c1cn(C)c2ncnc(N)c12` (stereo not shown) [Example 5, N-(4-(4-amino-7-methyl-7H-pyrrolo[2,3-d]pyrimidin-5-yl)-3-methylphenyl)-2-hydroxy-2-phenylacetamide], for which the IC50 was in the range of 26 to 50 nM in experiment [1] and 1 to 25 nM in experiment [2].

As to `Cc1cc(NC(=O)C(C)(O)c2ccccc2)ccc1-c1cn(C)c2ncnc(N)c12` (stereo not shown) [Example 7, N-(4-(4-amino-7-methyl-7H-pyrrolo[2,3-d]pyrimidin-5-yl)-3-methylphenyl)-2-hydroxy-2-phenylpropanamide], the IC50 in experiment [1] (Homo sapiens, HEK293, 2 h) lay in the range of 101 to 250 nM; in experiment [2] it was 51 to 100 nM.

With `COC(C(=O)Nc1ccc(-c2cn(C)c3ncnc(N)c23)c(C)c1)c1ccccc1` (stereo not shown) [Example 8, N-(4-(4-amino-7-methyl-7H-pyrrolo[2,3-d]pyrimidin-5-yl)-3-methylphenyl)-2-methoxy-2-phenylacetamide], the IC50 lay within 101 to 250 nM in experiment [1] (Homo sapiens, HEK293, 2 h) and 1 to 25 nM in experiment [2].

For `Cc1cc(NC(=O)C(O)c2cccc(F)c2)ccc1-c1cn(C)c2ncnc(N)c12` (stereo not shown) [Example 10, N-(4-(4-amino-7-methyl-7H-pyrrolo[2,3-d]pyrimidin-5-yl)-3-methylphenyl)-2-(3-fluorophenyl)-2-hydroxyacetamide], the IC50 in experiment [1] fell in the range of 51 to 100 nM; in experiment [2], 1 to 25 nM.

Consider `Cc1cc(NC(=O)C(O)c2cccc(F)c2)ccc1-c1cn(C)c2ncnc(N)c12` (stereo not shown) [Example 11, N-(4-(4-amino-7-methyl-7H-pyrrolo[2,3-d]pyrimidin-5-yl)-3-methylphenyl)-2-(3-fluorophenyl)-2-hydroxyacetamide], for which the IC50 in experiment [1] and in experiment [2] was 1 to 25 nM in each case.

As to `Cc1nc(N)c2c(-c3ccc(NC(=O)C(O)c4cccc(F)c4)c(F)c3C)cn(C)c2n1` (stereo not shown) [Example 12, N-(4-(4-amino-2,7-dimethyl-7H-pyrrolo[2,3-d]pyrimidin-5-yl)-2-fluoro-3-methylphenyl)-2-(3-fluorophenyl)-2-hydroxyacetamide], the IC50 in experiment [1] and in experiment [2] was 1 to 25 nM throughout.

As to `Cc1nc(N)c2c(-c3ccc(NC(=O)C(O)c4cccc(F)c4)c(F)c3C)cn(C)c2n1` (stereo not shown) [Example 13, N-(4-(4-amino-2,7-dimethyl-7H-pyrrolo[2,3-d]pyrimidin-5-yl)-2-fluoro-3-methylphenyl)-2-(3-fluorophenyl)-2-hydroxyacetamide], the IC50 in experiment [1] was 1000 to 2000 nM; in experiment [2] it was 51 to 100 nM.

With `Cn1cc(-c2ccc(NC(=O)C(O)c3cccc(F)c3)cc2Cl)c2c(N)ncnc21` (stereo not shown) [Example 14, N-(4-(4-amino-7-methyl-7H-pyrrolo[2,3-d]pyrimidin-5-yl)-3-chlorophenyl)-2-(3-fluorophenyl)-2-hydroxyacetamide], the IC50 in experiment [1] and in experiment [2] was 1 to 25 nM in each case.

Take `Cn1cc(-c2ccc(NC(=O)C(O)c3cccc(F)c3)cc2Cl)c2c(N)ncnc21` (stereo not shown) [Example 15, N-(4-(4-amino-7-methyl-7H-pyrrolo[2,3-d]pyrimidin-5-yl)-3-chlorophenyl)-2-(3-fluorophenyl)-2-hydroxyacetamide]: the IC50 in experiment [1] was 51 to 100 nM; in experiment [2] it was 26 to 50 nM.

Consider `Cn1cc(-c2ccc(NC(=O)C(O)c3cccc(F)c3)cc2C(F)(F)F)c2c(N)ncnc21` (stereo not shown) [Example 16, N-(4-(4-amino-7-methyl-7H-pyrrolo[2,3-d]pyrimidin-5-yl)-3-(trifluoromethyl)phenyl)-2-(3-fluorophenyl)-2-hydroxyacetamide], for which the IC50 lay in the range of 101 to 250 nM in experiment [1] (Homo sapiens, HEK293, 2 h) and 1 to 25 nM in experiment [2].

In the case of `CCc1cc(NC(=O)C(O)c2cccc(F)c2)ccc1-c1cn(C)c2ncnc(N)c12` (stereo not shown) [Example 17, N-(4-(4-amino-7-methyl-7H-pyrrolo[2,3-d]pyrimidin-5-yl)-3-ethylphenyl)-2-(3-fluorophenyl)-2-hydroxyacetamide], the IC50 in experiment [1] (Homo sapiens, HEK293, 2 h) fell in the range of 1 to 25 nM; in experiment [2], 1 to 25 nM.

`Cn1cc(-c2ccc(NC(=O)C(O)c3cccc(F)c3)cc2OC(F)(F)F)c2c(N)ncnc21` (stereo not shown) [Example 18, N-(4-(4-amino-7-methyl-7H-pyrrolo[2,3-d]pyrimidin-5-yl)-3-(trifluoromethoxy)phenyl)-2-(3-fluorophenyl)-2-hydroxyacetamide]: the IC50 in experiment [1] (Homo sapiens, HEK293, 2 h) lay in the range of 101 to 250 nM; in experiment [2], 1 to 25 nM.

With `Cc1nc(N)c2c(-c3ccc(NC(=O)C(O)c4cccc(F)c4)cc3C(F)(F)F)cn(C)c2n1` (stereo not shown) [Example 19, N-(4-(4-amino-2,7-dimethyl-7H-pyrrolo[2,3-d]pyrimidin-5-yl)-3-(trifluoromethyl)phenyl)-2-(3-fluorophenyl)-2-hydroxyacetamide], the IC50 in experiment [1] was 101 to 250 nM; in experiment [2], 1 to 25 nM.

`Cc1nc(N)c2c(-c3ccc(NC(=O)C(O)c4cccc(F)c4)cc3C(F)(F)F)cn(C)c2n1` (stereo not shown) [Example 20, N-(4-(4-amino-2,7-dimethyl-7H-pyrrolo[2,3-d]pyrimidin-5-yl)-3-(trifluoromethyl)phenyl)-2-(3-fluorophenyl)-2-hydroxyacetamide]: the IC50 in experiment [1] was 1000 to 2000 nM; in experiment [2] it was 51 to 100 nM.

On to `Cc1nc(N)c2c(-c3ccc(NC(=O)C(O)c4cccc(F)c4)cc3)cn(C)c2n1` (stereo not shown) [Example 23, N-(4-(4-amino-2,7-dimethyl-7H-pyrrolo[2,3-d]pyrimidin-5-yl)phenyl)-2-(3-fluorophenyl)-2-hydroxyacetamide], for which the IC50 in experiment [1] (Homo sapiens, HEK293, 2 h) fell in the range of 501 to 1000 nM; in experiment [2] it was 1 to 25 nM.
